Measurements taken from ChEMBL document CHEMBL1201862, “PubChem BioAssay data set” (2004).
Each block holds one compound with its values, some of them ahead of it. Activity calls are given as the source filed them.

Key:
Type in all cases: functional
[1] = target: Sphingosine 1-phosphate receptor 1 (Homo sapiens, UniProt P21453); assay: Late stage counterscreen assay for S1P4 antagonists: Fluorescence dose response cell-based screening assay for antagonists of the Sphingosine 1-Phosphate Receptor 1 (S1P1). [Related pubchem assays (depositor defined):AID1510, AID1524, AID1692, AID1853, AID2332, AID489009, AID489017]
Chain of Sphingosine 1-phosphate receptor 1 (P21453 whole entry): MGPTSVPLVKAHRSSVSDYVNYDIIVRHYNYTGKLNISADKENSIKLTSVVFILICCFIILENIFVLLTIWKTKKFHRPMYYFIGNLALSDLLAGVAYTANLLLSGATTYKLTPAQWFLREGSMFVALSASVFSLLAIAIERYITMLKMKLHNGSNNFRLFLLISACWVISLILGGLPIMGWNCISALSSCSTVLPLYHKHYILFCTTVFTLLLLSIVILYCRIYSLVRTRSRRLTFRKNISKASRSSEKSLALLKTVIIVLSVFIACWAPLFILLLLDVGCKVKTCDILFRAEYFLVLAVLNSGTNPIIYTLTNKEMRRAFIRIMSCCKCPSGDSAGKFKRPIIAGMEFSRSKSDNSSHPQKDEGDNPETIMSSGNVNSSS

[2] = target: Sphingosine 1-phosphate receptor 2 (Homo sapiens, UniProt O95136); assay: Late stage counterscreen assay for S1P4 antagonists: Fluorescence dose response cell-based screening assay for antagonists of the Sphingosine 1-Phosphate Receptor 2 (S1P2). [Related pubchem assays (depositor defined):AID1510, AID1524, AID1692, AID1853, AID2332, AID489009, AID489017]
Chain of Sphingosine 1-phosphate receptor 2 (O95136 whole entry): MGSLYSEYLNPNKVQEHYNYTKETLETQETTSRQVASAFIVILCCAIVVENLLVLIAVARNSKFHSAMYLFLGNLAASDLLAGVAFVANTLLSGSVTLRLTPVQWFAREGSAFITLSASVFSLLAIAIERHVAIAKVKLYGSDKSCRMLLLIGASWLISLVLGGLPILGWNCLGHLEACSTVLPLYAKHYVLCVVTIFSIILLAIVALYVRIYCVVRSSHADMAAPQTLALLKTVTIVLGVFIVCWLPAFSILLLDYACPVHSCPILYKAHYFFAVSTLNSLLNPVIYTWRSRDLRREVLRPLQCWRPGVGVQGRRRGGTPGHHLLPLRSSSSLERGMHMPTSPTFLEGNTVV

[3] = target: Sphingosine 1-phosphate receptor 3 (Homo sapiens, UniProt Q99500); assay: Late stage counterscreen assay for S1P4 antagonists: Fluorescence dose response cell-based screening assay for antagonists of the Sphingosine 1-Phosphate Receptor 3 (S1P3). [Related pubchem assays (depositor defined):AID1510, AID1524, AID1692, AID1853, AID2332, AID489009, AID489017]
Chain of Sphingosine 1-phosphate receptor 3 (Q99500 whole entry): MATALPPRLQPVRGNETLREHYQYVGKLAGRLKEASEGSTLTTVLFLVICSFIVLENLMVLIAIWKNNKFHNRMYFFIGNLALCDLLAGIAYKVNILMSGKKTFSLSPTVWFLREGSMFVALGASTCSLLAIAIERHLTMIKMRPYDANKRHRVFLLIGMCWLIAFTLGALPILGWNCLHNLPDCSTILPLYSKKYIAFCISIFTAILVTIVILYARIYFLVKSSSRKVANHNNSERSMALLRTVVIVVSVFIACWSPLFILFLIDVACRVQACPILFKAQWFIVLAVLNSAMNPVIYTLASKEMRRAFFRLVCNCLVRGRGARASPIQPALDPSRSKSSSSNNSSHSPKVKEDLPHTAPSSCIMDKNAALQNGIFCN

[4] = target: Sphingosine 1-phosphate receptor 5 (Homo sapiens, UniProt Q9H228); assay: Late stage counterscreen assay for S1P4 antagonists: Fluorescence dose response cell-based screening assay for antagonists of the Sphingosine 1-Phosphate Receptor 5 (S1P5). [Related pubchem assays (depositor defined):AID1510, AID1524, AID1692, AID1853, AID2332, AID489009, AID489017]
Chain of Sphingosine 1-phosphate receptor 5 (Q9H228 whole entry): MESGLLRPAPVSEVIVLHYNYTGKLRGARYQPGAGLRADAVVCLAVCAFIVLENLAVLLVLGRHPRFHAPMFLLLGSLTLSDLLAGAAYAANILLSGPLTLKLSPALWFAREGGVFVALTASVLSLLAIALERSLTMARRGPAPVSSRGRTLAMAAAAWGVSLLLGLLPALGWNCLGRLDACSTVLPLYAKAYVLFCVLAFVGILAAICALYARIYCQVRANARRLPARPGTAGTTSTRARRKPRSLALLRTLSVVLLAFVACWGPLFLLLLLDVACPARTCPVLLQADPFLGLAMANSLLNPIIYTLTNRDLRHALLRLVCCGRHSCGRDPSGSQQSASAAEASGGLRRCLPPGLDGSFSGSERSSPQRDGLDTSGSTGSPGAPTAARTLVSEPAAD

[5] = target: Intestinal-type alkaline phosphatase (Homo sapiens, UniProt P09923); assay: inhibition of human intestinal alkaline phosphatase – biochemical, dose response (AID 488876)
Chain of Intestinal-type alkaline phosphatase (Homo sapiens, UniProt P09923) (P09923 whole entry): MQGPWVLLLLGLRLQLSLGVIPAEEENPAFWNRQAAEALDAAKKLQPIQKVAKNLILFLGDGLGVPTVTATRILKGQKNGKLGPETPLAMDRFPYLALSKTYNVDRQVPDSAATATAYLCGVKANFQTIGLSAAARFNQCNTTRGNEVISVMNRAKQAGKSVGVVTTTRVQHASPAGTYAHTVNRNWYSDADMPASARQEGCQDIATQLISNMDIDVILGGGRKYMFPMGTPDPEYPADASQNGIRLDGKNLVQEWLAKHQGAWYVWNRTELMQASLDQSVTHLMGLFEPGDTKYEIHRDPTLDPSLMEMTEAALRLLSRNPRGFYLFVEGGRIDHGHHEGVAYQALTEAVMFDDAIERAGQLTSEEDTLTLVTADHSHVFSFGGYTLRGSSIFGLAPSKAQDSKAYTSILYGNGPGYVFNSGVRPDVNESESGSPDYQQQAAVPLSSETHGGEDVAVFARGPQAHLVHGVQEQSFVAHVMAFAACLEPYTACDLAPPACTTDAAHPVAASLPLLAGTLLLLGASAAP

[6] = target: T1, Calpain-2 catalytic subunit (Sus scrofa, UniProt P43367); assay: m-calpain protease blockers, concentration series – biochemical, fluorogenic peptide substrate, dose response (AID 1420)
T1 sequence (P43367 whole entry): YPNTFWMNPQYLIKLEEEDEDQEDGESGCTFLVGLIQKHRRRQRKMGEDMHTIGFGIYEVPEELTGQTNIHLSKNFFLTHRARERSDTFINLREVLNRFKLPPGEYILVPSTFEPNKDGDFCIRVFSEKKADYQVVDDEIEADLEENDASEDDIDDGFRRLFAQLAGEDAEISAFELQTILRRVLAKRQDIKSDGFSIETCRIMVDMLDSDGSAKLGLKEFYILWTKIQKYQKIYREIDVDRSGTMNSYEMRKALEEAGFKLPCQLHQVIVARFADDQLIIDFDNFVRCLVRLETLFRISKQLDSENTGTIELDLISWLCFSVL

[7] = target: Intestinal-type alkaline phosphatase (Mus musculus, UniProt P24822); assay: PubChem AID 488785
Chain of Intestinal-type alkaline phosphatase (Mus musculus, UniProt P24822) (P24822 whole entry): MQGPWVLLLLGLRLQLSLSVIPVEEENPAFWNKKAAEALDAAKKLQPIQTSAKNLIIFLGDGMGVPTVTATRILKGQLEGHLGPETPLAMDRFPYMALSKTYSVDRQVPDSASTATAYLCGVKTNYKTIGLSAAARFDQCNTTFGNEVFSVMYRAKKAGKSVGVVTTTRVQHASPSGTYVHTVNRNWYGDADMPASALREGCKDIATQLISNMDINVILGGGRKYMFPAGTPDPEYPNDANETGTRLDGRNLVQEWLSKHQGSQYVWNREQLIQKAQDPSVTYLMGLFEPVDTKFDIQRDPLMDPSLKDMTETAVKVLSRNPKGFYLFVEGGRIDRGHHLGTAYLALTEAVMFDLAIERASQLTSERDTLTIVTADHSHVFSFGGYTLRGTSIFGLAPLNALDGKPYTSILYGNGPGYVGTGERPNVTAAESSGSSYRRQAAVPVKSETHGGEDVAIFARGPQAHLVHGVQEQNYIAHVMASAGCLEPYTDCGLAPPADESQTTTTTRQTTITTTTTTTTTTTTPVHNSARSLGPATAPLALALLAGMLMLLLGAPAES

Prothrombin = Prothrombin (Homo sapiens, UniProt P00734); assay: Thrombin 1536 HTS Dose Response Confirmation. [Related pubchem assays: 1046 (Thrombin 1536 HTS; hits were confirmed in this assay)]
[8] = target: T2, Alkaline phosphatase, tissue-nonspecific isozyme (Homo sapiens, UniProt P05186); assay: TNAP enzyme inhibition by screening hits, dose response, selectivity assay for mouse IAP inhibitor project, biochemical, human TNAP, uHTS hits (AID 488906)
T2 sequence (P05186 whole entry): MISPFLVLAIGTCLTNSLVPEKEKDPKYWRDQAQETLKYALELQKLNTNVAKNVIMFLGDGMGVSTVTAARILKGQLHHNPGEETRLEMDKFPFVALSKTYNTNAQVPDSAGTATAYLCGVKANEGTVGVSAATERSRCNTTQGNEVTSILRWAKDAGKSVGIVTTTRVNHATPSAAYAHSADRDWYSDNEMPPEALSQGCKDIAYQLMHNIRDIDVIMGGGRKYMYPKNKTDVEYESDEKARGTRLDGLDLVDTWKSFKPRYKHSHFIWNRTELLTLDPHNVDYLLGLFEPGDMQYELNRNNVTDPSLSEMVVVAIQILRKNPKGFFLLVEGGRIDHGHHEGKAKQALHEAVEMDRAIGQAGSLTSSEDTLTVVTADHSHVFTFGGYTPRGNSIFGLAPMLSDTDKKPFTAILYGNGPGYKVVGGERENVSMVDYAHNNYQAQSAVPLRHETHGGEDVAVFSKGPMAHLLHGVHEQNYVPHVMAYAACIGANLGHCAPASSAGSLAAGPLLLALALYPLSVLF

[9] = target: Lysine-specific demethylase 4C (Homo sapiens, UniProt Q9H3R0); assay: inhibition of JMJD2C H3K9me3 demethylation – biochemical, DELFIA europium, cherry-picked samples, dose response (AID 488835)
Chain of Lysine-specific demethylase 4C (Q9H3R0 whole entry): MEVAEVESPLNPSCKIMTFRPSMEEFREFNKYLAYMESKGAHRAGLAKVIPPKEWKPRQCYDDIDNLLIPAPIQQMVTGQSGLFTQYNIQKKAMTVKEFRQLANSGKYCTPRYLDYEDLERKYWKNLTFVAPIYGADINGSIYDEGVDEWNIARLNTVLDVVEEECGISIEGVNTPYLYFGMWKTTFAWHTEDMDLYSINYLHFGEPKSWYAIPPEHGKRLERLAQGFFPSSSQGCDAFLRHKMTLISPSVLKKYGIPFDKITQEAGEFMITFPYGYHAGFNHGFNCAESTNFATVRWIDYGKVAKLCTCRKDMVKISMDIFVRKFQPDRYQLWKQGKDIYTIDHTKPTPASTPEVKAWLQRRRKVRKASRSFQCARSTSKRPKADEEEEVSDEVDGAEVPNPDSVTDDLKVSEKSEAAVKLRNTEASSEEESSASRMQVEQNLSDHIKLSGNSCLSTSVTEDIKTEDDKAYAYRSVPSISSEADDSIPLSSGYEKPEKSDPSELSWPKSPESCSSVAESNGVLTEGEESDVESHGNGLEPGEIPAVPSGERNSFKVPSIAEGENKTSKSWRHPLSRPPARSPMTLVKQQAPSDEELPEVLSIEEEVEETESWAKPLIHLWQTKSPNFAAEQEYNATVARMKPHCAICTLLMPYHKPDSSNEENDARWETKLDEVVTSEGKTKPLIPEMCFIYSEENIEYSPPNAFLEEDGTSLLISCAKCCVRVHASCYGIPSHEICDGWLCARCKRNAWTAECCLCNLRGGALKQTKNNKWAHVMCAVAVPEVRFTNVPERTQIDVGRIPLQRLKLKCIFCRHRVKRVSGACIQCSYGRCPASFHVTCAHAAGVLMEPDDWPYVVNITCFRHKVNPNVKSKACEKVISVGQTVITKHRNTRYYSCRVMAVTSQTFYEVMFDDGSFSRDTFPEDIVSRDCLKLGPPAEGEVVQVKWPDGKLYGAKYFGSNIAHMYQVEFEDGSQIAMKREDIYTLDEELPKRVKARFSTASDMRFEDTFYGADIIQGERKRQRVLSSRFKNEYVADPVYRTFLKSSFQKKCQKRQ

IC50 [1]: > 25 µM (inactive)
IC50 [2]: > 25 µM (inactive)
IC50 [3]: > 25 µM (inactive)
IC50 [4]: > 25 µM (inactive)
Structure (SMILES): Cc1ccc(C)c(NC(=O)c2ccc(-c3cc(Cl)ccc3Cl)o2)c1

IC50 [5]: > 100 µM (inactive)
IC50 [6]: 3.72 µM (not active)
IC50 [7]: 5.12 µM (active)
IC50 (Prothrombin): > 50 µM (not active)
IC50 [8]: 92.7 µM (active)
Structure (SMILES): COc1cccc(NC(S)=NCCC(c2ccccc2)c2ccccc2)c1

AC50 [9]: 20.1 µM (active)
Structure (SMILES): O=C(Nc1cc(S(=O)(=O)N2CCOCC2)ccc1N1CCCC1)c1ccc(F)cc1
